Data reported in patent US20030180349A1, “Respiratory infection prevention and treatment with terpene-containing compositions” (priority 2001, published 2003).

How the values were obtained:
erythrocytes = type: cell-based, Human
Method: These mixtures were incubated for 20 minutes.

Mycoplasma pneumoniae = experiment: In vitro effectiveness against Mycoplasma pneumoniae (color change); type: cell-based; conditions: 40 hours treatment
Method: Terpene beta-ionone or L-carvone was first mixed well with Tween® 80 to have a final Tween® 80 concentration of 5%. This mixture was then used to make concentrations of 2500 ppm in sterile phosphate buffer saline (PBS) by blending the mixture in PBS for 40 seconds. This 2500 ppm solution was then diluted to 500 ppm, 250 ppm, and 125 ppm with PBS.
PBS containing 25 ppm Tween® 80 or PBS alone was used to treat cells suspension as controls.
A log phase (2-3-day old) culture of Mycoplasma pneumoniae was mixed with each of the above three concentrations of terpene at 1:1 (volume) ratio (in this case, 1 mL of cell suspension was added to 1 mL of terpene).
The culture and terpene mixture was then incubated at 37° C. for 40 hours. After 40 hours of treatment, 10-fold serial dilution was performed to 10 (−10) by first taking 0.1 mL of the treated culture suspension was added into 0.9 mL of fresh SP4 (Whitcomb (1983); SP4 media is commercially available (Remel, Lenexa, Kans., USA)). All the tubes were then incubated at 37° C., and a color change of the medium was used for the indication of the cells that either were killed or survived from the treatment. Color change was from red to yellow because Mycoplasma pneumoniae produces acid during its growth.

[1] = Solution levels of terpenes in water (no surfactant, high-shear blending); type: physicochemical; conditions: for Solution levels for various terpenes: Level: maximum level solubilized in water without surfactant
H. pylori = conditions: cited from earlier work
[2] = Break down / loss of potency of terpenes in the presence of oxygen; type: physicochemical; conditions: 500 ppm solution
Description: Terpenes will break down in the presence of oxygen. Citral, for example, is an aldehyde and will decay (oxygenate) over a period of days.

Mycoplasma iowae = experiment: Effect of citral on growth of Mycoplasma iowae (color changing units); type: cell-based
Method: M. iowae is a known avian respiratory disease agent. […] Mycoplasma iowae were incubated at 37° C. in R2 (Chen, T. A., J. M. Wells, and C. H. Liao. 1982. Cultivation in vitro: spiroplasmas, plant mycoplasmas, and other fastidious, walled prokaryotes. pp. 417-446. in Phytopathogenic prokaryotes, V. 2, M. S. Mount and G. H. Lacy (ed.), Academic Press, New York) broth. One to 2-day old cultures were observed under a dark-field microscope to ensure cells were in filamentous form before treatment. Cell suspensions were vortexed to ensure they were evenly mixed before and an aliquot of 0.5 mL was dispensed into a sterile tube. […] The treated cell suspension was incubated for 24 hrs before the color changing units (CCUs) were determined by a 10-fold serial dilution in fresh R2. All treatments were duplicated. […] All culture tubes were incubated for 15 days before final readings were taken. A comparison was made of the effect of 24-hr and 48-hr treatment times. The CCUs were determined by taking treated cell suspension from the same treated tube 24 hrs or 48 hrs after treatment.

E. coli = conditions: cited from earlier work
[3] = 62.5 ppm (5% Tween 80, PBS), three days after 10-fold dilution
[4] = 62.5 ppm, 6 days after 10-fold dilution
[5] = 125 ppm (5% Tween 80, PBS), three days after 10-fold dilution
[6] = 125 ppm, 6 days after 10-fold dilution
[7] = 250 ppm (5% Tween 80, PBS), three days after 10-fold dilution
[8] = 250 ppm, 6 days after 10-fold dilution

Compound | Concentration at which erythrocytes lyse (erythrocytes) [ppm] | color change of medium / killing effect (Mycoplasma pneumoniae; [3]) | color change of medium / killing effect (Mycoplasma pneumoniae; [4]) | color change of medium / killing effect (Mycoplasma pneumoniae; [5]) | color change of medium / killing effect (Mycoplasma pneumoniae; [6]) | color change of medium / killing effect (Mycoplasma pneumoniae; [7]) | color change of medium / killing effect (Mycoplasma pneumoniae; [8]) | Solution levels for various terpenes: Level [1] [ppm] | other results
L-carvone | 250 | no killing effects | second and third tube | no killing effects | second and third tube | no killing effects | second and third tube | – | –
CC(C)=CCC/C(C)=C/CO [Geraniol] | – | – | – | – | – | – | – | 500 | concentration that inhibited the growth of H. pylori in vitro (H. pylori): 2 mg/L
CC(C)=CCCC(C)=CC=O [Citral, 3,7-dimethyl-2,6-octadien-1-al] | – | – | – | – | – | – | – | – | stable suspension can be formed up to ([1]; suspension): about 2500 ppm; time in which solution loses half its potency [2]: 2-3 weeks; color changing units after treatment (Mycoplasma iowae; 62.5 ppm, 24 hr (Table 4)): 10^6 CCUs; color changing units after treatment (Mycoplasma iowae; 62.5 ppm, 24 hrs (Table 3)): 10^8 CCUs; color changing units after treatment (Mycoplasma iowae; 62.5 ppm, 48 hr (Table 4)): 10^6 CCUs; color changing units after treatment (Mycoplasma iowae; 125 ppm, 24 hr (Table 4)): 10^7 CCUs; color changing units after treatment (Mycoplasma iowae; 125 ppm, 24 hrs (Table 3)): 10^8 CCUs; color changing units after treatment (Mycoplasma iowae; 125 ppm, 48 hr (Table 4)): 10^6 CCUs; color changing units after treatment (Mycoplasma iowae; 250 ppm, 24 hr (Table 4)): 10^5 CCUs; color changing units after treatment (Mycoplasma iowae; 250 ppm, 24 hrs (Table 3)): 10^7 CCUs; color changing units after treatment (Mycoplasma iowae; 250 ppm, 48 hr (Table 4)): 10^4 CCUs; concentration that will lyse human erythrocytes (erythrocytes; human, 20 min): about 1000 ppm; citral concentration with bactericidal effect (E. coli): 0.08%; citral in growth media that reduced the concentration of E. coli (E. coli): more than 0.01%
C=C(C)C1CC=C(C)C(=O)C1 (stereo not drawn) [Carvone] | – | – | – | – | – | – | – | 500 | –
Terpeniol | – | – | – | – | – | – | – | 500 | –
CC(=O)/C=C/C1=C(C)CCCC1(C)C [b-ionone] | 2000 | did not change color at all | only the first tube | did not change color at all | may have completely killed all cells | did not change color at all | may have completely killed all cells | 500 | –
